This passage reports microsomal CLint, half-life and IC50 results from patent US12129266B2, “Substituted pyrazolo[1,5-a]pyridine compound, composition containing the same and use thereof” (Shenzhen TargetRx, Inc., priority 2018, dated 2024).

The nature of data set [1]: Metabolic stability evaluation, liver microsome assay (HLM). The format is in vitro ADME. The conditions noted are these: pH 7.4, human liver microsomes 0.5 mg/mL, compound 1 μM, NADPH, 37° C. Here is the method:
(§1) Microsome assay: human liver microsomes (HLM): 0.5 mg/mL, Xenotech; rat liver microsomes (RLM): 0.5 mg/mL, Xenotech; mice liver microsomes (MLM): 0.5 mg/mL, Xenotech; coenzyme (NADPH/NADH): 1 mM, Sigma Life Science; magnesium chloride: 5 mM, 100 mM phosphate buffer (pH is 7.4).
(§2) Preparation of stock solution: a certain amount of powder of the example compound and the reference compound were accurately weighed, and dissolved to 5 mM with DMSO, respectively.
(§3) Preparation of phosphate buffer (100 mM, pH7.4): Pre-formulated 150 mL 0.5 M potassium dihydrogen phosphate and 700 mL 0.5 M dipotassium hydrogen phosphate solution were mixed, then the pH of the mixture was adjusted to 7.4 with 0.5 M dipotassium hydrogen phosphate solution. Before use, 5-fold dilution was made with ultra-pure water, and magnesium chloride was added to afford phosphate buffer (100 mM), which containing 100 mM potassium phosphate, 3.3 mM magnesium chloride, pH is 7.4.
(§4) NADPH regeneration system solution (containing 6.5 mM NADP, 16.5 mM G-6-P, 3 U/mL G-6-P D, 3.3 mM magnesium chloride) was prepared and placed on wet ice before use.
(§5) Preparation of stop solution: Acetonitrile solution containing 50 ng/mL propranolol hydrochloride and 200 ng/mL tolbutamide (internal standard). 25057.5 μL phosphate buffer (pH 7.4) was taken into a 50 mL centrifuge tube, and 812.5 μL human liver microsome was added, mixed well to afford liver microsome diluent with a protein concentration of 0.625 mg/mL. 25057.5 μL phosphate buffer (pH 7.4) was taken into a 50 mL centrifuge tube, and 812.5 μL SD rat liver microsome was added, respectively, mixed well to afford liver microsome diluent with a protein concentration of 0.625 mg/mL. 25057.5 μL phosphate buffer (pH 7.4) was taken into a 50 mL centrifuge tube, and 812.5 μL mice liver microsome was added, respectively, mixed well to afford liver microsome diluent with a protein concentration of 0.625 mg/mL.
(§6) Incubation of the sample: The stock solutions of the corresponding compounds were diluted to 0.25 mM with an aqueous solution containing 70% acetonitrile as working solutions for use. 398 μL of human liver microsome or rat liver microsome or mice liver microsome diluent was taken and added to a 96-well incubation plate (N=2), respectively, and 2 μL of 0.25 mM working solution was then added respectively, and mixed well.
(§7) Determination of metabolic stability: 300 μL of pre-chilled stop solution was added to each well of a 96-well deep well plate and the plate was placed on ice as a stop plate. The 96-well incubation plate and NADPH regeneration system were placed in a 37° C. water bath box, shook at 100 rpm, and pre-incubated for 5 min. 80 μL of incubation solution was taken from each well of the incubation plate and added to the stop plate, mixed well, and 20 μL of NADPH regeneration system solution was supplemented, the resulted solution was considered as sample at 0 min. Then 80 μL of NADPH regeneration system solution was added to each well of the incubation plate to start the reaction and started timing. The reaction concentration of the corresponding compound is 1 μM, and the protein concentration is 0.5 mg/mL. 100 μL reaction solution was taken at 10, 30, 90 min of reaction, respectively, and added into stop plate, the reaction was stopped with 3 min vortex. The stop plate was centrifuged at 5000×g, 4° C. for 10 min. 100 μL of supernatant was taken to a 96-well plate where 100 μL of distilled water was added in advance, mixed well, sample analysis was subjected by LC-MS/MS.
(§8) Data analysis: LC-MS/MS system was used to detect peak area of corresponding compound and internal standard, peak area ratio of compound and internal standard was calculated.
(§9) [formula] t1/2(min); CLint(μL/min/mg).
(Liver microsomes are vesicles of endoplasmic reticulum, rich in cytochrome P450 enzymes.)

The test system of the next data set is Ba/F3 KIF5B-RET. The experiment in a line: Cytotoxicity assay (CellTiter-Glo), Ba/F3 KIF5B-RET. The format is cell-based. The conditions noted are these: Mus musculus, BaF3; cell viability, 72 hours, CTG. In general terms: Cellular ATP, detected with luciferase, serves as a proxy for viable cell number.
Data set [2] in a line: Metabolic stability evaluation, liver microsome assay (RLM). The format is in vitro ADME, SD rat. Particulars: Sprague-Dawley, pH 7.4, rat liver microsomes 0.5 mg/mL, compound 1 μM, NADPH, 37° C. Here is the method:
as §1, §2, §3, §4, §5, §6, §7, §8, §9

A further data set concerns Ba/F3 parental. The experiment in a line: cells. Particulars: Mus musculus, BaF3, 72 h, read-out: IC50 (nM) Ba/F3 parental.
A short description of data set [3]: Metabolic stability evaluation, liver microsome assay (MLM). The format is in vitro ADME. Particulars: mouse, mouse liver microsomes, pH 7.4, mice liver microsomes 0.5 mg/mL, compound 1 μM, NADPH, 37° C. How it is done: as §1, §2, §3, §4, §5, §6, §7, §8, §9
A further data set has as its system Ba/F3 KIF5B-RET^V804M. The experiment in a line: Cytotoxicity assay (CellTiter-Glo), Ba/F3 KIF5B-RET V804M. The format is cell-based. The conditions noted are these: Mus musculus, BaF3; cell viability, 72 hours, CTG.

Broadly, the microsomal CLint is the capacity of the preparation to metabolise the compound, expressed as a volume cleared per time. A lower microsomal CLint goes with slow turnover.

On to `[2H]C([2H])(c1ccc(OC)nc1)N1C2CC1CN(c1ccc(-c3cc(OCC(C)(C)O)cn4ncc(C#N)c34)cn1)C2` [Example 11, 6-(2-hydroxy-2-methylpropoxy)-4-(6-(6-((6-methoxypyridin-3-yl)methyl-d2)-3,6-diazabicyclo[3.1.1]heptan-3-yl)pyridin-3-yl)pyrazolo[1,5-a]pyridine-3-carbonitrile], for which the microsomal CLint at 1 μM amounted to 96.2 µL/min/mg in data set [1], 11.7 µL/min/mg in data set [2] and 44.8 µL/min/mg in data set [3]. Further, the figures for the half-life at 1 μM in data set [1] (read-out: HLM t1/2), in data set [2] (read-out: RLM t1/2) and in data set [3] (read-out: MLM t1/2) were 14.4 min, 118 min and 30.9 min, respectively. The IC50 with Ba/F3 KIF5B-RET was determined as 19.1 nM; in the data set on Ba/F3 parental, 3510 nM; in the data set with Ba/F3 KIF5B-RET^V804M it was 40.5 nM.
